Results as given in EP0766694B1 (ZAMBON GROUP S.p.A., priority 1994, dated 1995).
Counter-ions that a name gives are not always drawn.

Tests used:
NEP = molecular target: T1, NEP (Rattus norvegicus, UniProt P07861); experiment: NEP-inhibitory activity (inhibition of [3H]Tyr-Gly-Gly formation from [3H][Leu5]-enkephaline in kidney cortex membranes)
T1 sequence (P07861 1-750): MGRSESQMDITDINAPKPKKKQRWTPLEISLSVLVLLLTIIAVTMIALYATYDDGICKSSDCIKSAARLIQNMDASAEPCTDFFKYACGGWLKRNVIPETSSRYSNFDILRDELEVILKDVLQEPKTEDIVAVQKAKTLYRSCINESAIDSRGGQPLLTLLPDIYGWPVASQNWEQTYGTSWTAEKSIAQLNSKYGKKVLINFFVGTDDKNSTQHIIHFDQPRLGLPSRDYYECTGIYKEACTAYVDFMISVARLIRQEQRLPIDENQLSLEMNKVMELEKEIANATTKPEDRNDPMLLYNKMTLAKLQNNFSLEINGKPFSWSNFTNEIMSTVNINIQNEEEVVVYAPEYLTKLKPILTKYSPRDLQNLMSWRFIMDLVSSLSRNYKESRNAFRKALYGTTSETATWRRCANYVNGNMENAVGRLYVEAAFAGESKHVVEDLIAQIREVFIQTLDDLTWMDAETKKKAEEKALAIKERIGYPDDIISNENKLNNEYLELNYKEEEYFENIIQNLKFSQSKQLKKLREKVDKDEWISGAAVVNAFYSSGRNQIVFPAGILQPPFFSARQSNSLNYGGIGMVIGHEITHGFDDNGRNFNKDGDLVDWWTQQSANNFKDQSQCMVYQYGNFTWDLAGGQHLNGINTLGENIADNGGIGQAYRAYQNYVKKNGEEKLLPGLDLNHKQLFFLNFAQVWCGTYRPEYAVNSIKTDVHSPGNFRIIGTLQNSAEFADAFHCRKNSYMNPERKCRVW

ACE = molecular target: T2, ACE (Oryctolagus cuniculus, UniProt P12822); experiment: ACE-inhibitory activity (FAPGG hydrolysis, absorbance at 340 nm); format: biochemical; conditions: ACE purified by lung rabbit, FAPGG 0.8 mM, 37°C; compounds of formula I tested in the form of sodium salts
T2 construct: ACE (250 mU/ml purified by lung rabbit, EC 3.4.15.1 SIGMA); purchased SIGMA; host or cells: rabbit lung
T2 sequence (P12822 34-1310): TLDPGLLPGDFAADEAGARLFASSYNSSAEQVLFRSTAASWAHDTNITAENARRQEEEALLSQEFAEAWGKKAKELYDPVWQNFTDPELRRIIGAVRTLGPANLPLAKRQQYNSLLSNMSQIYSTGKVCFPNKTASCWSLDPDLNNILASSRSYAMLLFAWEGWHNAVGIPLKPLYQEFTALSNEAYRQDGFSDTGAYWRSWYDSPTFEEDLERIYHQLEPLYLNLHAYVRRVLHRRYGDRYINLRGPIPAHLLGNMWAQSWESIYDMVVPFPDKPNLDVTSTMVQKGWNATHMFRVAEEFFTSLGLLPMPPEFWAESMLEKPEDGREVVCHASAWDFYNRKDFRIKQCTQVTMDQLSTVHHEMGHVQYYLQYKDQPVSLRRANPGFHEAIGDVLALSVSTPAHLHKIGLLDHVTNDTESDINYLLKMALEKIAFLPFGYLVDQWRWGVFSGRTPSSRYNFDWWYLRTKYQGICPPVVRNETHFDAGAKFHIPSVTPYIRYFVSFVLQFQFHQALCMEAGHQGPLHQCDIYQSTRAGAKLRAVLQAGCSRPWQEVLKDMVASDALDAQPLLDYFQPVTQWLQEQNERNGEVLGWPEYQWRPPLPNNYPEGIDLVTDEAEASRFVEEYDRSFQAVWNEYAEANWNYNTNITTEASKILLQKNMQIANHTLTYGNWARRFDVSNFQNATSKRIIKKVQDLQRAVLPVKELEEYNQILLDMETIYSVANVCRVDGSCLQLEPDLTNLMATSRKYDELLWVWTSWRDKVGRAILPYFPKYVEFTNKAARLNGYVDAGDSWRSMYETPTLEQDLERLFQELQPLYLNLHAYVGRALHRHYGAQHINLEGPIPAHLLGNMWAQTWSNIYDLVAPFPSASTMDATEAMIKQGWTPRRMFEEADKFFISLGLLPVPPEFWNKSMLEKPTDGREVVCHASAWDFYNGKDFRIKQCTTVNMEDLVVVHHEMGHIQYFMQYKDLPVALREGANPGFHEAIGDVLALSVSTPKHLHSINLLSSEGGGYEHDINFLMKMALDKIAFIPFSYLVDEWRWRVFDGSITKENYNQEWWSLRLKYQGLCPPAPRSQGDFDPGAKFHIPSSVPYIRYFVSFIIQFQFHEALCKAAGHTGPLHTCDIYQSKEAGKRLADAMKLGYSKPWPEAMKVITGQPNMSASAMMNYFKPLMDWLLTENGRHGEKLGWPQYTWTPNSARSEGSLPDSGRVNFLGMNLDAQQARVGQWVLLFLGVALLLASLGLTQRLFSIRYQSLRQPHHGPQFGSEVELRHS
Method: […] of ACE (250 mU/ml purified by lung rabbit, EC 3.4.15.1 SIGMA) with 50 µl of the compound of formula I or of the reference compounds, were preincubated in thermostated cuvettes at 37°C for 5 minutes.
The reaction was started by adding furylacryloylphenylalanylglycylglycine 0.8 mM (FAPGG-SIGMA).
Contemporaneously, by using a Beckman DU-50 spectrophotometer provided with a program for calculating delta A/minutes and regression coefficients of the enzyme kinetics curves, the absorbance at 340 nm was recorded in continuo for 5 minutes.

NEP-inhibitory activity IC50 (nM) (NEP; membranes from rat kidney cortex, [3H][Leu5]-enkephaline 15 nM, 20 minutes at 30°C, compounds of formula I tested in the form of sodium salts) | Structure (SMILES) | IC50 (ACE) | IC50 (NEP)
not active | C[C@H](CS)C(=O)N1CCC[C@H]1C(=O)O [Captopril, reference compound] |  | 
 | CC(C)C[C@H](N[C@@H](CCc1ccccc1)C(=O)O)C(=O)N[C@@H](Cc1ccc(-c2ccccc2)cc1)C(=O)O [Compound 1, N-[N'-[(1S)-1-carboxy-3-phenyl-propyl]-L-leucyl]-(1.1'-biphenyl-4-yl)-L-alanine disodium salt] | 1.5 nM | 27.7 nM
 | CC(C)[C@H](N[C@@H](CCc1ccccc1)C(=O)O)C(=O)N[C@@H](Cc1ccc(-c2ccccc2)cc1)C(=O)O [Compound 10] | 2 nM | 41 nM
 | O=C(O)[C@H](Cc1ccc(-c2ccccc2)cc1)NC(=O)[C@H](Cc1cccs1)N[C@@H](CCc1ccccc1)C(=O)O [Compound 15] | 1.8 nM | 10 nM
 | CC(C)C[C@H](N[C@@H](CCC(=O)Nc1ccccc1)C(=O)O)C(=O)N[C@@H](Cc1ccc(-c2ccccc2)cc1)C(=O)O [Compound 17] | 2.2 nM | 27 nM
 | CC(C)C[C@H](N[C@@H](CC(=O)NCc1ccccc1)C(=O)O)C(=O)N[C@@H](Cc1ccc(-c2ccccc2)cc1)C(=O)O [Compound 20] | 15 nM | 53 nM
